Test results from patent publication US9394273B2, “Therapeutic prostaglandin receptor agonists” (Allergan, Inc., priority 2014, dated 2016).

Key:
[1] = molecular target: T1, prostaglandin EP4 receptor (Homo sapiens (Human), UniProt P35408); experiment: EP4 binding assay (Ki); conditions: read-out: EP4 Ki EC50
Description: (§1) U.S. patent application publication No. 20070129552, published on Jun. 7, 2007, incorporated by reference herein, describes the methods used to obtain the in vitro data in Table 1 below.

EP2 [2] = molecular target: T2, EP2 (Homo sapiens (Human), UniProt P43116); experiment: EP2 binding assay (Ki)
Description: as §1

[3] = molecular target: T1, prostaglandin EP4 receptor; experiment: EP4 cAMP functional assay; type: cell-based
Description: as §1

EP2 [4] = molecular target: T2, EP2; experiment: EP2 cAMP functional assay; type: cell-based
Description: as §1

EP3 = EP3 (Homo sapiens (Human), UniProt P43115); experiment: Other receptors FLIPR: EP3; type: cell-based; conditions: NA undefined in patent
Description: as §1

TP = TP (Homo sapiens (Human), UniProt P21731); experiment: Other receptors FLIPR: TP; type: cell-based; conditions: NA undefined in patent
Description: as §1

T1 sequence (P35408 whole entry): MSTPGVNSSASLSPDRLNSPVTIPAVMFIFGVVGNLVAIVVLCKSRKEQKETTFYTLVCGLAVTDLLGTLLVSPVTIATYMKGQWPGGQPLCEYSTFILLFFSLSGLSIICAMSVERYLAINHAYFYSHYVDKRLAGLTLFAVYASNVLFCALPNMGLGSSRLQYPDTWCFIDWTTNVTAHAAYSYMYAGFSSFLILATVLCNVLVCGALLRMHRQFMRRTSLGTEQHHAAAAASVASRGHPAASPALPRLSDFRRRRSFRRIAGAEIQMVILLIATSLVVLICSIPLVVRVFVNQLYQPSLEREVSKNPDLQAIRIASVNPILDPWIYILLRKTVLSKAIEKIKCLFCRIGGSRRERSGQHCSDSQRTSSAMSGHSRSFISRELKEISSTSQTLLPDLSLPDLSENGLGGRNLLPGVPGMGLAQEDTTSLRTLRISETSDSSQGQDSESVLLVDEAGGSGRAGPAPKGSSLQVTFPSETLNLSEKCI
TP, sequence (P21731 whole entry): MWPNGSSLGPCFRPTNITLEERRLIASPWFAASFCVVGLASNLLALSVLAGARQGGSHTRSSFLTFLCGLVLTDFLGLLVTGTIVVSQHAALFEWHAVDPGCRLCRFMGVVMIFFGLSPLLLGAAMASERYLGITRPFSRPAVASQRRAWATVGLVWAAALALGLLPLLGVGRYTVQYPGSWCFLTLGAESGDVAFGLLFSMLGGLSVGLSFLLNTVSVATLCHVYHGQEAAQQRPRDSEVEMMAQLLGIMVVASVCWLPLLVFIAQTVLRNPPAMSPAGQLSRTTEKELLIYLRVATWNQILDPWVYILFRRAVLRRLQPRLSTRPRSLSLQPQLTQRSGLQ
EP3, sequence (P43115 whole entry): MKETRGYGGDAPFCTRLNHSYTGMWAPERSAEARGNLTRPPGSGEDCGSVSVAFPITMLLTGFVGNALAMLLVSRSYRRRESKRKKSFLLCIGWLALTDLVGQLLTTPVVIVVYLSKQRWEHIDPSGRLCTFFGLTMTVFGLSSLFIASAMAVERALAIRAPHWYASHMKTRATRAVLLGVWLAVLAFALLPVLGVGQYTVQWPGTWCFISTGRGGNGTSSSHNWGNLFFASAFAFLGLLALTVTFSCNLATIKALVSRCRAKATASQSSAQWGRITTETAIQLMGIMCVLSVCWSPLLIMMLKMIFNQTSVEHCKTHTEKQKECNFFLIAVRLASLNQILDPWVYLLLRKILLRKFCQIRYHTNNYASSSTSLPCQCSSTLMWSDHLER
T2 sequence (P43116 whole entry): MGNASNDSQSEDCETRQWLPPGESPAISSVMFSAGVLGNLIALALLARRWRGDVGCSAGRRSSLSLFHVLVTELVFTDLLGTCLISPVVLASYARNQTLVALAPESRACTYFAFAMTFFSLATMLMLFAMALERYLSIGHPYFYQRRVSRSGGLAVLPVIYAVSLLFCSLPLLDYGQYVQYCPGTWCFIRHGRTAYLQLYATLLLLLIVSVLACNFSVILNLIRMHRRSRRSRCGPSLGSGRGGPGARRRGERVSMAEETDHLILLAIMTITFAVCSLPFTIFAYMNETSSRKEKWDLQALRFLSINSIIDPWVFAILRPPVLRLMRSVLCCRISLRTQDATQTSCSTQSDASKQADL

SMILES	Ki [1] [nM]	EP2 Ki (nM) (EP2 [2]) [K]	EC50 [3] [nM]	EP2 cAMP EC50 (nM) (EP2 [4]) [K]	Ki (EP2 [2]) [nM]	EC50 (EP2 [4]) [nM]	EC50 (EP3) [nM]	EC50 (TP) [nM]	OTHER RECEPTORS FLIPR EC50 (nM): TP (TP) [nM]
O=C(O)c1ccc(CC[C@H]2C(=O)CC[C@@H]2/C=C/C(O)Cc2ccc3ccccc3c2)cc1 (single isomer, unassigned) [Entry 1]	0.8	>10	1						
O=C(O)c1ccc(CC[C@H]2C(=O)CC[C@@H]2/C=C/C(O)Cc2ccc3ccccc3c2)cc1 (single isomer, unassigned) [Entry 2]	10	>10	21						
O=C(O)c1ccc(CC[C@H]2C(=O)CC[C@@H]2/C=C/C(O)Cc2sc3ccccc3c2Cl)cc1 (single isomer, unassigned) [Entry 3, (E)-4-(2-(2-(4-(3-chlorobenzo[b]thiophen-2-yl)-3-hydroxybut-1-en-1-yl)-5-oxocyclopentyl)ethyl)benzoic acid]	2310	>10	1280	>10					
O=C(O)c1ccc(CC[C@H]2C(=O)CC[C@@H]2/C=C/C(O)Cc2sc3ccccc3c2Cl)cc1 (single isomer, unassigned) [Entry 4, (E)-4-(2-(2-(4-(3-chlorobenzo[b]thiophen-2-yl)-3-hydroxybut-1-en-1-yl)-5-oxocyclopentyl)ethyl)benzoic acid]	603	>10	186	>10					
O=C(O)c1ccc(CC[C@H]2C(=O)CC[C@@H]2/C=C/C(O)Cc2cccc(F)c2)cc1 (single isomer, unassigned) [Entry 5, (E)-4-(2-(2-(4-(3-fluorophenyl)-3-hydroxybut-1-en-1-yl)-5-oxocyclopentyl)ethyl)benzoic acid]	40		1		3420	78			
O=C(O)c1ccc(CC[C@H]2C(=O)CC[C@@H]2/C=C/C(O)Cc2cccc(F)c2)cc1 (single isomer, unassigned) [Entry 6, (E)-4-(2-(2-(4-(3-fluorophenyl)-3-hydroxybut-1-en-1-yl)-5-oxocyclopentyl)ethyl)benzoic acid]	2		0.04		1780	10	721	7190	
O=C(O)c1ccc(CC[C@H]2C(=O)CC[C@@H]2/C=C/C(O)Cc2cccc(Br)c2)cc1 (single isomer, unassigned) [Entry 9, (E)-4-(2-(2-(4-(3-bromophenyl)-3-hydroxybut-1-en-1-yl)-5-oxocyclopentyl)ethyl)benzoic acid]					1450	278			
O=C(O)c1ccc(CC[C@H]2C(=O)CC[C@@H]2/C=C/C(O)Cc2cccc(Br)c2)cc1 (single isomer, unassigned) [Entry 10, (E)-4-(2-(2-(4-(3-bromophenyl)-3-hydroxybut-1-en-1-yl)-5-oxocyclopentyl)ethyl)benzoic acid]					947	26	180	108	
O=C(O)c1ccc(CC[C@H]2C(=O)CC[C@@H]2/C=C/C(O)Cc2cccc(C(F)(F)F)c2)cc1 (single isomer, unassigned) [Entry 11, (E)-4-(2-(2-(3-hydroxy-4-(3-(trifluoromethyl)phenyl)but-1-en-1-yl)-5-oxocyclopentyl)ethyl)benzoic acid]	90		16		3160	1010			
O=C(O)c1ccc(CC[C@H]2C(=O)CC[C@@H]2/C=C/C(O)Cc2cccc(C(F)(F)F)c2)cc1 (single isomer, unassigned) [Entry 12, (E)-4-(2-(2-(3-hydroxy-4-(3-(trifluoromethyl)phenyl)but-1-en-1-yl)-5-oxocyclopentyl)ethyl)benzoic acid]	1		0.2		1310	35		218	
O=C(O)c1ccc(CC[C@H]2C(=O)CC[C@@H]2/C=C/C(O)Cc2ccc(F)cc2)cc1 (single isomer, unassigned) [Entry 19, (E)-4-(2-(2-(4-(4-fluorophenyl)-3-hydroxybut-1-en-1-yl)-5-oxocyclopentyl)ethyl)benzoic acid]	902		38		9290				
O=C(O)c1ccc(CC[C@H]2C(=O)CC[C@@H]2/C=C/C(O)Cc2ccc(F)cc2)cc1 (single isomer, unassigned) [Entry 20, (E)-4-(2-(2-(4-(4-fluorophenyl)-3-hydroxybut-1-en-1-yl)-5-oxocyclopentyl)ethyl)benzoic acid]	3		0.2		745	11	952	5600	
O=C(O)c1ccc(CC[C@H]2C(=O)CC[C@@H]2/C=C/C(O)Cc2ccccc2F)cc1 (single isomer, unassigned) [Entry 21, (E)-4-(2-(2-(4-(2-fluorophenyl)-3-hydroxybut-1-en-1-yl)-5-oxocyclopentyl)ethyl)benzoic acid]	64		4		2220	76			
O=C(O)c1ccc(CC[C@H]2C(=O)CC[C@@H]2/C=C/C(O)Cc2ccccc2F)cc1 (single isomer, unassigned) [Entry 22, (E)-4-(2-(2-(4-(2-fluorophenyl)-3-hydroxybut-1-en-1-yl)-5-oxocyclopentyl)ethyl)benzoic acid]	4		0.3		1030	8	4670		
O=C(O)c1ccc(CC[C@H]2C(=O)CC[C@@H]2/C=C/C(O)Cc2ccc(F)c(F)c2)cc1 (single isomer, unassigned) [Entry 23, (E)-4-(2-(2-(4-(3,4-difluorophenyl)-3-hydroxybut-1-en-1-yl)-5-oxocyclopentyl)ethyl)benzoic acid]	293		21		9320				
O=C(O)c1ccc(CC[C@H]2C(=O)CC[C@@H]2/C=C/C(O)Cc2ccc(F)c(F)c2)cc1 (single isomer, unassigned) [Entry 24, (E)-4-(2-(2-(4-(3,4-difluorophenyl)-3-hydroxybut-1-en-1-yl)-5-oxocyclopentyl)ethyl)benzoic acid]	3		0.3		1530	30	1510	2450	
O=C(O)c1ccc(CC[C@H]2C(=O)CC[C@@H]2/C=C/C(O)Cc2cccc(F)c2F)cc1 (single isomer, unassigned) [Entry 25, (E)-4-(2-(2-(4-(2,3-difluorophenyl)-3-hydroxybut-1-en-1-yl)-5-oxocyclopentyl)ethyl)benzoic acid]	585		30		3150	164			
O=C(O)c1ccc(CC[C@H]2C(=O)CC[C@@H]2/C=C/C(O)Cc2cccc(F)c2F)cc1 (single isomer, unassigned) [Entry 26, (E)-4-(2-(2-(4-(2,3-difluorophenyl)-3-hydroxybut-1-en-1-yl)-5-oxocyclopentyl)ethyl)benzoic acid]	2		0.2		1240	8	9950		
O=C(O)c1ccc(CC[C@H]2C(=O)CC[C@@H]2/C=C/C(O)Cc2cc(F)ccc2F)cc1 (single isomer, unassigned) [Entry 27, (E)-4-(2-(2-(4-(2,5-difluorophenyl)-3-hydroxybut-1-en-1-yl)-5-oxocyclopentyl)ethyl)benzoic acid]	457		18		3630	125			
O=C(O)c1ccc(CC[C@H]2C(=O)CC[C@@H]2/C=C/C(O)Cc2cc(F)ccc2F)cc1 (single isomer, unassigned) [Entry 28, (E)-4-(2-(2-(4-(2,5-difluorophenyl)-3-hydroxybut-1-en-1-yl)-5-oxocyclopentyl)ethyl)benzoic acid]	5		0.2		1300	10	5990		
O=C(O)c1ccc(CC[C@H]2C(=O)CC[C@@H]2/C=C/C(O)Cc2cccc(Cl)c2)cc1 (stereo partly drawn) [Entry 7, (E)-4-(2-(2-(4-(3-chlorophenyl)-3-hydroxybut-1-en-1-yl)-5-oxocyclopentyl)ethyl)benzoic acid]	2		2		2760	123		4830	
O=C(O)c1ccc(CC[C@H]2C(=O)CC[C@@H]2/C=C/C(O)Cc2ccc3ccsc3c2)cc1 (stereo partly drawn) [Entry 15, (E)-4-(2-(2-(4-(benzo[b]thiophen-6-yl)-3-hydroxybut-1-en-1-yl)-5-oxocyclopentyl)ethyl)benzoic acid]	41	>10	0.5				67		< 10000
COc1ccc2cc(CC(O)/C=C/[C@H]3CCC(=O)[C@@H]3CCc3ccc(C(=O)O)cc3)ccc2c1 (stereo partly drawn) [Entry 16, (E)-4-(2-(2-(3-hydroxy-4-(6-methoxynaphthalen-2-yl)but-1-en-1-yl)-5-oxocyclopentyl)ethyl)benzoic acid]	2660	>10	728						
COc1cc2ccccc2cc1CC(O)/C=C/[C@H]1CCC(=O)[C@@H]1CCc1ccc(C(=O)O)cc1 (stereo partly drawn) [Entry 17, (E)-4-(2-(2-(3-hydroxy-4-(3-methoxynaphthalen-2-yl)but-1-en-1-yl)-5-oxocyclopentyl)ethyl)benzoic acid]	4620	>10							
COc1ccc2ccc(CC(O)/C=C/[C@H]3CCC(=O)[C@@H]3CCc3ccc(C(=O)O)cc3)cc2c1 (stereo partly drawn) [Entry 18, (E)-4-(2-(2-(3-hydroxy-4-(7-methoxynaphthalen-2-yl)but-1-en-1-yl)-5-oxocyclopentyl)ethyl)benzoic acid]	9	>10	2						
